# Where a name gives a salt, the structure may show the parent alone.
# Experiment: Solubility of bevirimat and bevirimat dimeglumine in single vehicles
# Settings: in 100% water, 100% saline, 100% dextrose, 100% PEG 400, and 25% Poloxamer 188
compound,measurement,value
"C=C(C)[C@@H]1CC[C@]2(C(=O)O)CC[C@]3(C)[C@H](CC[C@@H]4[C@@]5(C)CC[C@H](OC(=O)CC(C)(C)C(=O)O)C(C)(C)[C@@H]5CC[C@]43C)[C@@H]12 [Bevirimat dimeglumine, di-N-methylglucamine salt of 3-O-(3′,3′-dimethylsuccinyl)betulinic acid]",solubility (in words),limited solubility

# Reference: patent publication US20100216751A1 (priority 2007, published 2010)
